Here are results for 27 molecules from patent US20250186437A1, “CARBOLINE COMPOUNDS AND USE THEREOF” (PTC Therapeutics, Inc., priority 2021, published 2025).

This assay deals with MOLM-13 cells. Nature of the assay: MOLM-13 Cell Proliferation Assay (indicator of DHODH inhibition). In kind it is cell-based. To be noted: Homo sapiens, 72 Hours of culture, CellTiter-Glo, no uridine. On the procedure: The following assay was conducted to measure proliferation of MOLM-13 cells in the presence of each compound studied. This assay was included as an indicator of DHODH inhibition, as growth of MOLM-13 cells is known to depend on synthesis of pyrimidines using the de novo pathway, which can be blocked by inhibition of DHODH. • 1. MOLM-13 cells were cultured in RPMI 1640 medium+10% Fetal Bovine Serum (FBS). Only low passage cells (<20) were used for the compound tests • 2. On day 1, Log-phase growing Molm-13 Cells were counted and diluted to 10^5 cells/mL in RPMI 1640 medium+10% FBS • 3. 100 μL of diluted MOLM-13 cells in 96 well white plates were seeded, for a final density of 10^4 cells/well. • 4. 0.5 μL of pre-diluted 200× compounds or DMSO control was added to each well. The final DMSO concentration was 0.5%. • 5. After 72 Hours of culture at 37° C., 5% CO2, the plates were taken out and cooled to RT, then 50 μL CellTiter-Glo® (Promega) was added, and the composition was mixed at RT for 10 minutes. • 6. The plates were then read by ViewLux (Speed-fast, Gain-High, Bining-1X, 5 seconds).
(ATP-based viability assays read luminescence as a measure of living cells.)

For `COc1ccc2[nH]c3c(c2c1)CCN(c1nccc(C(F)(F)F)n1)C3c1cnc(N2CCOCC2)nc1` (stereo not drawn) [Compound 302, 6-methoxy-1-[2-(morpholin-4-yl)pyrimidin-5-yl]-2-[4-(trifluoromethyl)pyrimidin-2-yl]-2,3,4,9-tetrahydro-1H-pyrido[3,4-b]indole], the 50% inhibitory concentration (IC50) is 7 nM. Under `Cc1nc(C)nc(N2CCc3c([nH]c4ccc(Cl)c(N)c34)C2c2cnc(N3CCOCC3)nc2)n1` (stereo not drawn) [Compound 327, 6-chloro-2-(4,6-dimethyl-1,3,5-triazin-2-yl)-1-[2-(morpholin-4-yl)pyrimidin-5-yl]-2,3,4,9-tetrahydro-1H-pyrido[3,4-b]indol-5-amine] stands 31.9 nM.

For `Cc1ccc(C2c3[nH]c4ccc(Cl)cc4c3CCN2c2nccc(C)n2)cc1` (stereo not drawn) [Compound 332, 6-chloro-1-(4-methylphenyl)-2-(4-methylpyrimidin-2-yl)-2,3,4,9-tetrahydro-1H-pyrido[3,4-b]indole], the half-maximal inhibitory concentration (IC50) came out at 11.8 nM.

The molecule `COc1ncc([C@H]2c3[nH]c4ccc(Cl)cc4c3CCN2c2nc(C(F)(F)F)nc(C(F)(F)F)n2)cn1` [Compound 522, (1S)-2-[4,6-bis(trifluoromethyl)-1,3,5-triazin-2-yl]-6-chloro-1-(2-methoxypyrimidin-5-yl)-2,3,4,9-tetrahydro-1H-pyrido[3,4-b]indole] showed an IC50 of 0.7 nM.

Molecule `CN(C)c1ncc(C2c3[nH]c4ccc(Cl)c(F)c4c3CCN2c2ncc(F)cn2)cn1` (stereo not drawn) [Compound 201, 5-[6-chloro-5-fluoro-2-(5-fluoropyrimidin-2-yl)-2,3,4,9-tetrahydro-1H-pyrido[3,4-b]indol-1-yl]-N,N-dimethylpyrimidin-2-amine] had a half-maximal inhibitory concentration (IC50) of 7.9 nM. In the case of `Fc1c(C2c3[nH]c4ccc(Cl)cc4c3CCN2c2nccc(C(F)(F)F)n2)ccc(-n2ccnc2)c1F` (stereo not drawn) [Compound 285, 6-chloro-1-[2,3-difluoro-4-(1H-imidazol-1-yl)phenyl]-2-[4-(trifluoromethyl)pyrimidin-2-yl]-2,3,4,9-tetrahydro-1H-pyrido[3,4-b]indole], inhibition was half-maximal at 2.8 nM (IC50). Under `O=[N+]([O-])c1ccc2[nH]c3c(c2c1)CCN(c1nccc(C(F)(F)F)n1)C3c1cnc(N2CCOCC2)nc1` (stereo not drawn) [Compound 323, 1-[2-(morpholin-4-yl)pyrimidin-5-yl]-6-nitro-2-[4-(trifluoromethyl)pyrimidin-2-yl]-2,3,4,9-tetrahydro-1H-pyrido[3,4-b]indole] stands 3.6 nM. Take `Fc1cc2[nH]c3c(c2cc1Cl)CCN(c1ncc(C(F)(F)F)cn1)C3c1cccc(F)c1F` (stereo not drawn) [Compound 133, 6-chloro-1-(2,3-difluorophenyl)-7-fluoro-2-[5-(trifluoromethyl)pyrimidin-2-yl]-2,3,4,9-tetrahydro-1H-pyrido[3,4-b]indole]: the half-inhibitory concentration (IC50) was 11.2 nM.

The molecule `Cc1ccc([C@H]2c3[nH]c4ccc(Cl)cc4c3CCN2c2ncc(Br)cn2)c(F)c1F` [Compound 463, (1S)-2-(5-bromopyrimidin-2-yl)-6-chloro-1-(2,3-difluoro-4-methylphenyl)-2,3,4,9-tetrahydro-1H-pyrido[3,4-b]indole] came in with a half-inhibitory concentration (IC50) of 1.1 nM.

Molecule `Cc1ccc(C2c3[nH]c4ccc(Cl)cc4c3CCN2c2nccc(-c3ccccc3)n2)c(F)c1F` (stereo not drawn) [Compound 469, 6-chloro-1-(2,3-difluoro-4-methylphenyl)-2-(4-phenylpyrimidin-2-yl)-2,3,4,9-tetrahydro-1H-pyrido[3,4-b]indole] showed a concentration for half-maximal inhibition (IC50) of 4 nM. Under `Fc1ccc(C2c3[nH]c4ccc(Cl)c(F)c4c3CCN2c2nccc(C(F)(F)F)n2)cc1` (stereo not drawn) [Compound 60, 6-chloro-5-fluoro-1-(4-fluorophenyl)-2-[4-(trifluoromethyl)pyrimidin-2-yl]-2,3,4,9-tetrahydro-1H-pyrido[3,4-b]indole] stands 9.3 nM; under `Cc1ccc(C2c3[nH]c4ccc(Cl)c(F)c4c3CCN2c2ncc(F)c(C)n2)c(F)c1F` (stereo not drawn) [Compound 114, 6-chloro-1-(2,3-difluoro-4-methylphenyl)-5-fluoro-2-(5-fluoro-4-methylpyrimidin-2-yl)-2,3,4,9-tetrahydro-1H-pyrido[3,4-b]indole], 1.1 nM. `Fc1cnc(N2CCc3c([nH]c4cc(F)c(Cl)cc34)C2c2ccc(Cl)cc2)nc1` (stereo not drawn) [Compound 11, 6-chloro-1-(4-chlorophenyl)-7-fluoro-2-(5-fluoropyrimidin-2-yl)-2,3,4,9-tetrahydro-1H-pyrido[3,4-b]indole] yielded a half-maximal inhibitory concentration (IC50) of 35.4 nM. To `Fc1cccc(C2c3[nH]c4ccc(Cl)cc4c3CCN2c2nccc(C(F)(F)F)n2)c1F` (stereo not drawn) [Compound 119, 6-chloro-1-(2,3-difluorophenyl)-2-[4-(trifluoromethyl)pyrimidin-2-yl]-2,3,4,9-tetrahydro-1H-pyrido[3,4-b]indole] belongs 2.2 nM; to `Cc1ccc(C2c3[nH]c4cc(F)c(Cl)cc4c3CCN2c2nc(C)c(C)c(C)n2)cc1` (stereo not drawn) [Compound 163, 6-chloro-7-fluoro-1-(4-methylphenyl)-2-(4,5,6-trimethylpyrimidin-2-yl)-2,3,4,9-tetrahydro-1H-pyrido[3,4-b]indole], 10.9 nM. Under `Cc1ccc(C2c3[nH]c4ccc(Cl)cc4c3CCN2c2nncc(C(F)(F)F)n2)cc1` (stereo not drawn) [Compound 430, 6-chloro-1-(4-methylphenyl)-2-[5-(trifluoromethyl)-1,2,4-triazin-3-yl]-2,3,4,9-tetrahydro-1H-pyrido[3,4-b]indole] stands 1.8 nM; under `Cc1ccc(C2c3[nH]c4cc(F)c(Cl)cc4c3CCN2c2ncc(F)c(C)n2)cc1` (stereo not drawn) [Compound 123, 6-chloro-7-fluoro-2-(5-fluoro-4-methylpyrimidin-2-yl)-1-(4-methylphenyl)-2,3,4,9-tetrahydro-1H-pyrido[3,4-b]indole], 12.1 nM. Under `Cc1ccc([C@H]2c3[nH]c4ccc(Cl)cc4c3CCN2c2nc(N(C)C)nc(C(F)(F)F)n2)cc1` [Compound 441, 4-[(1S)-6-chloro-1-(4-methylphenyl)-1,3,4,9-tetrahydro-2H-pyrido[3,4-b]indol-2-yl]-N,N-dimethyl-6-(trifluoromethyl)-1,3,5-triazin-2-amine] stands 5.7 nM; under `CSc1nc(N2CCc3c([nH]c4ccc(F)cc34)C2c2ccc(C)c(F)c2F)nc(C(F)(F)F)n1` (stereo not drawn) [Compound 495, 1-(2,3-difluoro-4-methylphenyl)-6-fluoro-2-[4-(methylsulfanyl)-6-(trifluoromethyl)-1,3,5-triazin-2-yl]-2,3,4,9-tetrahydro-1H-pyrido[3,4-b]indole], 8.8 nM; under `Cc1cnnc(N2CCc3c([nH]c4ccc(Cl)cc34)C2c2cnc(N3CCOCC3)nc2)n1` (stereo not drawn) [Compound 384, 6-chloro-2-(5-methyl-1,2,4-triazin-3-yl)-1-[2-(morpholin-4-yl)pyrimidin-5-yl]-2,3,4,9-tetrahydro-1H-pyrido[3,4-b]indole], 25.6 nM. Molecule `Cc1ccnc(N2CCc3c([nH]c4ccc(Cl)cc34)C2c2cnc(N3CCOCC3)nc2)n1` (stereo not drawn) [Compound 312, 6-chloro-2-(4-methylpyrimidin-2-yl)-1-[2-(morpholin-4-yl)pyrimidin-5-yl]-2,3,4,9-tetrahydro-1H-pyrido[3,4-b]indole] registered a half-inhibitory concentration (IC50) of 7.4 nM. For the molecule `Fc1ccc(C2c3[nH]c4ccc(Cl)c(F)c4c3CCN2c2ncc(F)cn2)cc1` (stereo not drawn) [Compound 51, 6-chloro-5-fluoro-1-(4-fluorophenyl)-2-(5-fluoropyrimidin-2-yl)-2,3,4,9-tetrahydro-1H-pyrido[3,4-b]indole], the IC50 is 21.6 nM.

In turn, `Cc1ccn(-c2ccc3[nH]c4c(c3c2)CCN(c2nc(C(F)(F)F)nc(C(F)(F)F)n2)[C@H]4c2ccc(C)c(F)c2F)n1` [Compound 530, (1S)-2-[4,6-bis(trifluoromethyl)-1,3,5-triazin-2-yl]-1-(2,3-difluoro-4-methylphenyl)-6-(3-methyl-1H-pyrazol-1-yl)-2,3,4,9-tetrahydro-1H-pyrido[3,4-b]indole] showed an IC50 of 10.9 nM. Under `Cc1nc(C)nc(N2CCc3c([nH]c4ccc(Cl)cc34)C2c2ccc(N3CCOCC3)nc2F)n1` (stereo not drawn) [Compound 459, 6-chloro-2-(4,6-dimethyl-1,3,5-triazin-2-yl)-1-[2-fluoro-6-(morpholin-4-yl)pyridin-3-yl]-2,3,4,9-tetrahydro-1H-pyrido[3,4-b]indole] stands 3 nM. Under `CN1CCN(c2ncc([C@H]3c4[nH]c5ccc(Br)cc5c4CCN3c3nc(C(F)(F)F)cc(C(F)(F)F)n3)cn2)CC1` [Compound 499, (1S)-2-[4,6-bis(trifluoromethyl)pyrimidin-2-yl]-6-bromo-1-[2-(4-methylpiperazin-1-yl)pyrimidin-5-yl]-2,3,4,9-tetrahydro-1H-pyrido[3,4-b]indole] stands 0.3 nM. For `Cc1ccc(C2c3[nH]c4cc(F)c(Cl)cc4c3CCN2c2ncc(C)cn2)cc1` (stereo not drawn) [Compound 134, 6-chloro-7-fluoro-1-(4-methylphenyl)-2-(5-methylpyrimidin-2-yl)-2,3,4,9-tetrahydro-1H-pyrido[3,4-b]indole], the IC50 is 21.7 nM.

`Cc1ccnc(N2CCc3c([nH]c4ccc(Cl)c(F)c34)C2c2ccc(C)c(F)c2F)n1` (stereo not drawn) [Compound 196, 6-chloro-1-(2,3-difluoro-4-methylphenyl)-5-fluoro-2-(4-methylpyrimidin-2-yl)-2,3,4,9-tetrahydro-1H-pyrido[3,4-b]indole]: the IC50 came to 1.8 nM.

A word on the IC50: it is the concentration that inhibits the measured activity by half. Low values mean greater potency in that assay, high ones weaker potency in that assay.
